Experimental data from patent US20150306081A1, “Chemotherapy for Drug-Resistant Cancer Cells” (THE UNIVERSITY OF SYDNEY, priority 2012, published 2015).

Key:
[1] = system: Pgp-expressing KBV1 cells; assay: MTT proliferation assay, KBV1 cells; assay type: cell-based, Human; details: 72 h
2008/P200A cells = assay: Uptake of 14C-Dp44mT, 2008/P200A cells; assay type: cell-based; details: 2008/P200 cells, NH4Cl, MA or CLQ pre-incubation
Protocol: (§1) For the uptake assay, each 35 mm culture dish containing 5×10^5 cells was incubated with ^14C-doxorubicin, ^3H-vinblastine or ^14C-Dp44mT (all at 1 μCi) for 30 min/37° C. Cells were then washed on ice three times with ice-cold PBS and collected for analysis. Drug uptake was calculated as the number of drug molecules/cell. […] For studies using lysosomotropic agents, cells were pre-incubated with NH4Cl (5 mM), CLQ (100 μM) or MA (100 μM) for 30 min/37° C. prior to ^14C-Dp44mT uptake. […] For efflux assays, the same labeling procedure was conducted as in the uptake assay. […] After this procedure, the overlying media was removed using a Pasteur pipette and then placed in a counting vial. The cells were removed from the plate in 1 mL of PBS and then dispensed into a separate counting vial. The radiolabeled-drug efflux was calculated as a percentage of the total drug uptake by the cells found at zero time.

2008 cells = assay: Uptake of 14C-Dp44mT, 2008 cells; assay type: cell-based; details: NH4Cl, MA or CLQ pre-incubation
Protocol: as §1

[2] = Redox studies: oxidation of H2DCF, cell-free; details: acetate buffer pH 5, cysteine, H2O2, over 12 min
Protocol: These studies were conducted in an acetate buffer (150 mM; pH 5) containing cysteine (100 μM) to mimic lysosomal conditions. In these experiments, hydrogen peroxide (100 μM) was added to initiate ROS generation.

[3] = system: Pgp over-expressing KBV1 cells; assay: Efflux of 14C-Dp44mT, KBV1 cells; assay type: cell-based, Human
Protocol: as §1

[4] = system: non-Pgp expressing 2008 cells; assay: MTT proliferation assay, 2008 cells; assay type: cell-based; details: 2008 cells, Val 1 μM, Ela 0.1 μM
Protocol: (§2) The 2008 ovarian carcinoma cell line and the PAC-resistant 2008/P200A cell line (grown in 200 ng/mL of PAC) were kindly provided by Dr. John Allen (Centenary Institute, Sydney, Australia). Cells were grown in Dulbecco's modified Eagle's medium (DMEM; Life Technologies) with 10% (v/v) fetal calf serum (Sigma-Aldrich, St. Louis, Mo.) and supplemented with the following additions from Life Technologies: 1% (v/v) sodium pyruvate, 1% (v/v) non-essential amino acids, 100 U/mL penicillin, 100 μg/mL streptomycin, 2 mM L-glutamine and 0.28 μg/mL fungizone. The cells were then incubated at 37° C. in a humidified atmosphere of 5% CO2 and 95% air.
(§3) The effect of anti-cancer agents on cellular proliferation was examined using the MTT [3-(4,5-dimethylthiazol-2-yl)-2,5-diphenyl tetrazolium] method. In this assay, 3×10^3 cells/well were seeded in 96-well plates in 100 μL of media. The next day, serially diluted drugs of interest were added. […] The cells were incubated at 37° C. in a humidified atmosphere containing 5% CO2 and 95% air for 72 h. After this incubation, 10 μL of MIT (5 mg/mL) was added to each well and the incubation continued at 37° C. for 2 h. After solubilization of the cells with 100 μL of 10% SDS-50% isobutanol in 10 mM HCl, the plates were read at 570 nm using a scanning multi-well spectrophotometer (Victor™ Multilabel Counter plate reader; Perkin Elmer, Australia). Results were analyzed to calculate the concentration of chelator or complex necessary to reduce the absorbance to 50% (IC50) of the control.

Pgp [5] = molecular target: T1, Pgp (Homo sapiens, UniProt P08183); assay: Pgp-ATPase activity assay (Pgp-Glo); details: 40 min
Protocol: The ATPase activities of Pgp were determined using Pgp-enriched membranes and a luminescent ATP detection kit (Pgp-Glo Assay Kit, Promega, USA) according to the manufacturer's instructions. Briefly, Pgp membranes (0.5 mg/mL) and Mg(II)-ATP (5 mM) were incubated in the absence or presence of sodium orthovanadate (100 μM) for 40 min/37° C. and ATP detected as a luciferase-generated luminescent signal. Basal Pgp-ATPase activities were determined as the difference between the ATP hydrolysis in the presence or absence of sodium orthovanadate. Verapamil-stimulated Pgp-ATPase activity was measured in the presence of the Pgp control substrate, verapamil (200 μM).
Test substrates (Dp44mT and Bp4eT) of interest were dissolved in dimethyl sulfoxide. The final concentration of DMSO in the assay medium was less than 1%.
The Pgp Glo™ ATPase assay (Promega, Madison, Wis.) was used to assess if Dp44mT and Bp4eT are substrates of Pgp. The ATPase assay measures the Pgp-mediated ATPase activity of Pgp by quantitating ATP consumption in the presence of the compounds of interest after incubation with purified membrane proteins containing high levels of Pgp. […] The basal ATPase activity of Pgp is compared to the ATPase activity stimulated or inhibited by the compounds of interest.

[6] = system: Pgp expressing 2008/P200A cells; assay: MTT proliferation assay, 2008/P200A cells; assay type: cell-based
Protocol: as §2, §3

[7] = system: non-Pgp expressing KB31 cells; assay: MTT proliferation assay, KB31 cells; assay type: cell-based, Human; details: Val 1 μM, Ela 0.1 μM, 72 h
[8] = system: non-Pgp expressing KB31 cells; assay: Rhodamine 123 accumulation assay, KB31 cells; assay type: cell-based, Human; details: increased concentrations
Protocol: (§4) Cells were then harvested and resuspended in ice-cold PBS and kept on ice until flow cytometric analysis (see below).
(§5) The dyes, Rh123 and acridine orange were detected with the FACS Canto flow cytometer (BD Biosciences) and 10,000 events were acquired for every sample. Data analysis was performed using FlowJo software, version 7.5.5 (Tree Star Inc., Ashland, OR).

Pgp [9] = molecular target: T1, Pgp; assay: Rhodamine 123 accumulation assay, KBV1 cells; assay type: cell-based; details: 0.1 μM or above
Protocol: as §4, §5

KBV1 cells = assay: MTT cytotoxicity after transient knockdown of Pgp (MDR1 siRNA) in KBV1 cells; assay type: cell-based, Human; details: Pgp siRNA vs. Scr siRNA, 72 h
Protocol: as §3
For all siRNA treatments against MDR1 (MDR1-siRNA; Cat #: 4123, Life Technologies), a siRNAlipofectamine mixture (50 nM MDR1 siRNA and 1/400 lipofectamine 2000) was added to the cells (at 30% confluency) and incubated for 72 h/37° C. prior to further experimentation. The effectiveness of Pgp knockdown was confirmed using western blot and also assessing DOX cytotoxicity via the MTT assay. As a control, scrambled siRNA (Scr siRNA; Life Technologies) was used at the same concentration as MDR1 siRNA.

T1 sequence (P08183 whole entry): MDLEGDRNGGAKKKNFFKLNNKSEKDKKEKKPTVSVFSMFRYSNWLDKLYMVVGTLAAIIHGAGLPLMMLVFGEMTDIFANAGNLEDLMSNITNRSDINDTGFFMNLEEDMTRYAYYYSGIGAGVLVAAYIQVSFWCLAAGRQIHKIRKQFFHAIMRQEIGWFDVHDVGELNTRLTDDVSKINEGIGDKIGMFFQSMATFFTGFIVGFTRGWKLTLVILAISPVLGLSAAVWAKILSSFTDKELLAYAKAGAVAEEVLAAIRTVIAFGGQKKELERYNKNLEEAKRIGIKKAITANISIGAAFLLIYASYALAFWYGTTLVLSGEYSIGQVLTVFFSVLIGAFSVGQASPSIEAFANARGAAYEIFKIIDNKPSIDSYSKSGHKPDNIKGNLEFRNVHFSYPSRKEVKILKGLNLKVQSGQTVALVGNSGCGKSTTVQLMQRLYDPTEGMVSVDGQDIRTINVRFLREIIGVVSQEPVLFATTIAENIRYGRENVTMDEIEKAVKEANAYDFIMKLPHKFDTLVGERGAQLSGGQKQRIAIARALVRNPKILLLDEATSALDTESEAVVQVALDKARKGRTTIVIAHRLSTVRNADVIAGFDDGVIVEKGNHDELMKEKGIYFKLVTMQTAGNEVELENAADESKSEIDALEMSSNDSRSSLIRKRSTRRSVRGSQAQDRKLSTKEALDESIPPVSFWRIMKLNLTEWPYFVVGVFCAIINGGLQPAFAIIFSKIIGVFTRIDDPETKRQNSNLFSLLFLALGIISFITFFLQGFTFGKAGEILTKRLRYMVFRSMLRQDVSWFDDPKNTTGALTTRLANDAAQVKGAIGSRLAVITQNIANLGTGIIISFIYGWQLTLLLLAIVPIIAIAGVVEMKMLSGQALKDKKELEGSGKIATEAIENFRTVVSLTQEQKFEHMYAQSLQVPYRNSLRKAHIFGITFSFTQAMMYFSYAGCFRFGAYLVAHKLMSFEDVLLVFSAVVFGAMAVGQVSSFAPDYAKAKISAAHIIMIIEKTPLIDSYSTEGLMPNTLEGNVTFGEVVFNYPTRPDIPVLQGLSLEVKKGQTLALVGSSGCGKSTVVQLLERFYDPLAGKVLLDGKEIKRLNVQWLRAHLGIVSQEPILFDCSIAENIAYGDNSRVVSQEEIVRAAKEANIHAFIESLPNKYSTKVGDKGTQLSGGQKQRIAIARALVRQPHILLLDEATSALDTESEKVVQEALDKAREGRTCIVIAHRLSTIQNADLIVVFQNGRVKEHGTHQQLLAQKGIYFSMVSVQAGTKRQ

For `CN(C)C(=S)NN=C(c1ccccn1)c1ccccn1` [Dp44mT, di-2-pyridylketone 4,4-dimethyl-3-thiosemicarbazone], the “more cytotoxic in drug-resistant KBV1 cells compared to KB31 cells” value [1] was 31 fold, the “change of cytotoxicity in presence of Pgp inhibitors Val or Ela” value (“change … of Pgp inhibitors Val or Ela” below) ([1]; KBV1 cells, Val 1 μM, Ela 0.1 μM) was “clear decrease in the cytotoxicity” and the “accumulation after pre-treatment with lysosomotropic agents” value (2008/P200A cells) was “significantly (p<0.001) decreased”. The “accumulation after pre-treatment with lysosomotropic agents” value (2008 cells) was “did not significantly affect”, the “redox activity (H2DCF oxidation)” value [2] was “no activity” and the “efflux in KBV1 cells in comparison to KB31 cells” value ([3]; 1-10 min incubation) was “significantly (p<0.001) higher efflux”. For the same compound, the “effect of Val and Ela on efflux” value ([3]; KBV1 cells, Val 1 μM or Ela 0.1 μM) was “significantly (p<0.01-0.001) suppressed efflux”, the “change … of Pgp inhibitors Val or Ela” value [4] was “no significant (p>0.05) change” and the “stimulation of basal catalytic (ATPase) activity of Pgp” value (Pgp [5]) was 3- to 8 fold. The “change … of Pgp inhibitors Val or Ela” value ([6]; 2008/P200A cells, Val 1 μM, Ela 0.1 μM) was “significantly (p<0.001) decreased sensitivity”, the “sensitivity of 2008/P200A cells compared to 2008 cells” value ([6]; 72 h) was “significantly (p<0.001) increased sensitivity” and the “change … of Pgp inhibitors Val or Ela” value [7] was “did not significantly alter their cytotoxicity”. For the same compound, the “effect on Rh123 accumulation” value [8] was “did not significantly affect Rh123 accumulation”, the “increased accumulation of Rh123” value (Pgp [9]) was “up to two fold” and the “increase of IC50 by knockdown of Pgp” value (KBV1 cells) was 10 fold.
